Assay results published in ChEMBL document CHEMBL1201862, “PubChem BioAssay data set” (2004).
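Five concentrations, 48 hours, 96-well plates. GI50 is the concentration that inhibits growth by half.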 Activity calls are given as the source filed them. Cut-off read from the data, not from the text of the source: active = GI50 up to about 1.1 µM and inactive = higher.

How the values were obtained:
Assay in all cases: NCI tumour cell line growth inhibition, 48 h
[1] = test system: KM12
[2] = test system: SF-295
[3] = test system: UACC-62
[4] = test system: HOP-18
[5] = test system: A549
[6] = test system: NCI-H226
[7] = test system: LOX IMVI
[8] = test system: OVCAR-4
[9] = test system: HCT-116
[10] = test system: EKVX
[11] = test system: NCI-H460
[12] = test system: RPMI-8226
[13] = test system: UACC-257
[14] = test system: SK-MEL-28
[15] = test system: COLO 205
[16] = test system: LXFL 529
[17] = test system: MOLT-4
[18] = test system: M19-MEL
[19] = test system: 786-0
[20] = test system: U-251
[21] = test system: SW-620
[22] = test system: SNB-75
[23] = test system: SNB-78
[24] = test system: SK-OV-3
[25] = test system: HOP-62
[26] = test system: UO-31
[27] = test system: K562
[28] = test system: SK-MEL-5
[29] = test system: DMS-114
[30] = test system: SN12C
[31] = test system: TK-10
[32] = test system: NCI-H23
[33] = test system: OVCAR-8
[34] = test system: CCRF-CEM
[35] = test system: DMS-273
[36] = test system: KM-20L2
[37] = test system: SK-MEL-2
[38] = test system: HL-60
[39] = test system: RXF 393
[40] = test system: HCT-15
[41] = test system: NCI-H522
[42] = test system: M14
[43] = test system: ACHN
[44] = test system: XF498
[45] = test system: Malme-3M
[46] = test system: SF-268
[47] = test system: SR
[48] = test system: HT-29
[49] = test system: SNB-19
[50] = test system: CAKI-1
[51] = test system: OVCAR-5
[52] = test system: SF-539
[53] = test system: IGROV-1
[54] = test system: HCC 2998
[55] = test system: DLD-1
[56] = test system: OVCAR-3
[57] = test system: HOP-92
[58] = test system: A498
[59] = test system: MDA-MB-435
[60] = test system: Hs-578T
[61] = test system: MDA-N
[62] = test system: MDA-MB-231
[63] = test system: T47D
[64] = test system: DU-145
[65] = test system: NCI/ADR-RES
[66] = test system: BT-549
[67] = test system: MCF7

Measured: GI50

OC12CCC3(OC4CCCCO4)c4ccccc4C3C1c1ccccc12 (centres undefined)
24.2 µM: [40]
inactive: [1] 54.6 µM | [2] 52.5 µM | [3] 56.8 µM | [4] > 100 µM | [5] 85.1 µM | [6] > 100 µM | [7] 38.8 µM | [8] > 100 µM | [9] 35 µM | [10] > 100 µM | [11] 35.2 µM | [12] 36 µM | [13] 91.2 µM | [14] 76 µM | [15] 55.1 µM | [16] 41.2 µM | [17] 35.4 µM | [18] 90.4 µM | [19] 67.5 µM | [20] 53.8 µM | [21] 55.6 µM | [22] > 100 µM | [23] > 100 µM | [24] > 100 µM | [25] > 100 µM | [26] 59.6 µM | [27] 46 µM | [28] 48.5 µM | [29] 87.5 µM | [30] 87.7 µM | [31] > 100 µM | [32] 90.2 µM | [33] 74.3 µM | [34] 58.9 µM | [35] 61.7 µM | [36] 59.3 µM | [37] > 100 µM | [38] 30.3 µM | [39] 44.6 µM | [41] 37.6 µM | [42] 67.6 µM | [43] 41.7 µM | [44] 31.8 µM | [45] > 100 µM | [46] 65.9 µM | [47] 37.2 µM | [48] 43.9 µM | [49] 61.9 µM

COC(=O)[C@@H]1CSC(=S)N1C(=O)C[C@H]1CC=CC[C@H]1CC(=O)Sc1ccccc1
inactive: [1] 15.1 µM | [2] 22 µM | [3] 19.3 µM | [4] 29.8 µM | [5] 17.7 µM | [6] 23.7 µM | [50] > 10 µM | [7] 17.7 µM | [8] > 10 µM | [9] 16.1 µM | [10] 17.4 µM | [11] 17.7 µM | [51] 19.1 µM | [12] 12.5 µM | [13] 18.5 µM | [14] 16.4 µM | [15] 19.5 µM | [16] 15.3 µM | [17] 4.29 µM | [18] 23.4 µM | [19] 17.5 µM | [20] 15.5 µM | [21] 17.4 µM | [52] 17.8 µM | [22] 15.4 µM | [23] 22.3 µM | [24] 27.8 µM | [25] 20.7 µM | [53] 19.8 µM | [26] 13.8 µM | [27] 12.1 µM | [30] 15.7 µM | [54] 17.9 µM | [31] > 10 µM | [32] 21 µM | [33] 21 µM | [34] 3.04 µM | [35] 21.7 µM | [36] 20.9 µM | [37] 22.2 µM | [38] 3.47 µM | [39] 14.2 µM | [41] 12 µM | [42] 16.7 µM | [43] 17.6 µM | [44] 16.5 µM | [45] 21.5 µM | [46] 15.1 µM | [55] 17 µM | [56] 19.2 µM | [47] 8.99 µM | [48] 19.8 µM | [49] 18.2 µM
16.2 µM: [40]

O=c1c2ccccc2nc(-c2ccccc2Cl)n1NC1OC(CO)C(O)C(O)C1O (centres undefined)
> 100 µM: [40]
inactive: [1] > 100 µM | [2] > 100 µM | [3] > 100 µM | [57] > 100 µM | [4] 32 µM | [5] > 100 µM | [6] > 100 µM | [50] > 100 µM | [8] > 100 µM | [9] > 100 µM | [10] > 100 µM | [11] > 100 µM | [51] > 100 µM | [12] > 100 µM | [13] > 100 µM | [14] > 100 µM | [15] > 100 µM | [16] > 100 µM | [17] > 100 µM | [58] > 100 µM | [18] > 100 µM | [19] > 100 µM | [20] > 100 µM | [21] > 100 µM | [52] > 100 µM | [22] 97.9 µM | [23] > 100 µM | [24] > 100 µM | [25] > 100 µM | [53] > 100 µM | [26] > 100 µM | [27] > 100 µM | [28] > 100 µM | [29] > 100 µM | [30] > 100 µM | [54] > 100 µM | [31] > 100 µM | [32] > 100 µM | [33] > 100 µM | [34] > 100 µM | [35] > 100 µM | [36] > 100 µM | [37] > 100 µM | [38] > 100 µM | [41] > 100 µM | [42] > 100 µM | [43] > 100 µM | [44] > 100 µM | [45] > 100 µM | [46] > 100 µM | [55] > 100 µM | [56] > 100 µM | [48] > 100 µM | [49] > 100 µM

CC1=CC(=O)c2ccc3c4ccccc4n(C)c3c2C1=O
25.5 µM: [40]
inactive: [1] 34.4 µM | [2] > 54.5 µM | [57] > 46.5 µM | [4] 4.4 µM | [5] 48.2 µM | [6] > 94.4 µM | [50] 36.2 µM | [59] 17.1 µM | [60] 62.8 µM | [8] 74 µM | [9] > 88.5 µM | [10] > 19.8 µM | [11] 29.4 µM | [61] 16.6 µM | [51] > 100 µM | [12] > 41.2 µM | [13] 46.3 µM | [14] 60.7 µM | [15] > 85.9 µM | [16] 25.8 µM | [17] 19.4 µM | [58] 83.6 µM | [18] 10.1 µM | [19] 56 µM | [20] 49 µM | [21] 92.3 µM | [62] 70.6 µM | [52] > 100 µM | [63] 33.8 µM | [22] 54.1 µM | [23] 90.8 µM | [64] 63.2 µM | [24] > 100 µM | [25] 24.9 µM | [53] 16.9 µM | [26] > 65.9 µM | [27] 16.1 µM | [28] 13.6 µM | [29] 27.7 µM | [30] > 69 µM | [54] > 96.4 µM | [31] > 100 µM | [32] 14 µM | [33] 58.9 µM | [34] 20.8 µM | [35] 43.4 µM | [37] 16.2 µM | [38] 22.8 µM | [39] 43.6 µM | [65] > 100 µM | [41] 28.4 µM | [42] 17.8 µM | [43] 55.6 µM | [44] 29.2 µM | [45] 6.67 µM | [46] > 70 µM | [55] 62.8 µM | [56] 54.8 µM | [66] 41.8 µM | [67] 12 µM | [48] > 31.6 µM | [49] 39.1 µM

COc1ccccc1NC(=O)/C(=C/c1ccccc1)C(C)=O
inactive: [1] 36.9 µM | [2] 27.5 µM | [3] 32.9 µM | [57] 45.3 µM | [4] > 100 µM | [5] 38 µM | [6] 37.1 µM | [50] 35.1 µM | [7] 37.2 µM | [8] 64.4 µM | [9] 43.3 µM | [10] 45.4 µM | [11] 37.2 µM | [51] > 100 µM | [12] 35.5 µM | [13] 47 µM | [14] 62.4 µM | [16] 43.9 µM | [17] 30.1 µM | [18] 65.2 µM | [19] 35.1 µM | [20] 4.47 µM | [21] 36.9 µM | [52] 23.6 µM | [23] 10.8 µM | [24] 44.5 µM | [25] 59.4 µM | [53] 53 µM | [26] 56.8 µM | [27] 27.6 µM | [28] 22.7 µM | [29] 40.3 µM | [30] 42.2 µM | [54] 36.1 µM | [31] 44.9 µM | [32] 19.1 µM | [33] 37.4 µM | [34] 29.6 µM | [37] 38.5 µM | [38] 23.6 µM | [39] 20.7 µM | [41] 25.5 µM | [42] 25.2 µM | [43] 41.5 µM | [44] 19.4 µM | [45] 27.7 µM | [46] 38.4 µM | [55] 38.8 µM | [56] 38.6 µM | [47] 36.6 µM | [48] 32.3 µM | [49] 47.3 µM
37.2 µM: [40]
